# Laboratory results taken from patent publication US10947196B2, “Beta adrenergic agonist and methods of using the same” (CURASEN THERAPEUTICS, INC., priority 2019, dated 2021).
# Molecular target: β1-adrenergic receptor (Homo sapiens (Human), UniProt P08588)
# Assay: cAMP Gs dynamic HTRF assay, β1 expressing CHO cells
# Type: cell-based
# Conditions: B1-AR; CHO-K1 (HitHunter)
# Procedure: (§1) cAMP homogeneous time-resolved fluorescence (HTRF). Compound efficacy was determined using the cAMP Gs dynamic HTRF assay (Cisbio, catalog #62AM4PEC) largely following the manufacturer's instructions, also detailed below.
# (§2) Compound preparation. […] Standard serial dilution curves were 10-point, 5-fold dilutions starting from a highest concentration of 10 μM. […] Assay plates were centrifuged at 500×g for 10 seconds. Compounds and IBMX were prepared at 2× final dose to compensate for addition of cells.
# (§3) Cell preparation. 1× stimulation buffer, washing PBS (Dulbecco's phosphate-buffered saline, −Mg −Ca; Caisson Labs, catalog #PBL01), assay PBS (Dulbecco's phosphate-buffered saline, +Mg, +Ca; Caisson Labs, catalog #PBL02) and Versene (0.02% EDTA disodium salt solution in PBS without calcium or magnesium; Caisson Labs, catalog #EDL01) were pre-warmed to 37° C. Cells expressing beta-adrenergic receptor were washed in washing PBS to remove growth medium and then released from the surface by incubating with Versene for 5-10 minutes at 37° C. Cells were harvested using assay PBS, counted manually by hemocytometer or by an automated cell counter, pelleted by centrifugation (200×g, 5 minutes) and resuspended in 37° C. 1× stimulation buffer to a final density of 1.5×10^6 cells/mL. 5 μL of the suspended cell solution (7500 cell total) were added to all wells of the 384 well assay plate, the assay plate was covered with an Axygen® plate seal (Corning PCR-SP) and incubated in a humidified 37° C. environment supplemented with 5% CO2 for 30 minutes.
# (§4) HTRF reagent addition, reading and data analysis. After 30 minutes of cell stimulation with test compound, the assay plates were centrifuged at 500×g for 10 seconds, and incubation was stopped with the addition of 5 μL cAMP-D2 acceptor, diluted 1:21 in detection and lysis buffer 2 (Cisbio 62CL2FDF) was added to all cells. Subsequently, 5 μL Anti-cAMP-Eu Donor, diluted 1:21 in detection and lysis buffer 2, was added to cells. Plates were sealed and reactions gently ‘vortexed’ at 900 rpm on a Heidolph Titramax 1000 for at least 30 minutes at room temperature. Plates were centrifuged again at 500×g for 10 seconds, and HTRF was measured using a Tecan Spark plate reader at 50 flashes per well. […] Potency estimates (EC50) were derived from the four-parameter nonlinear regression of the concentration-effect curve and an estimate of relative efficacy was determined by comparing the magnitude of the test compound HTRF signal window (min−max dose) with the signal window of the full agonist control, isoproterenol.
# Sequence of β1-adrenergic receptor (P08588 whole entry, species assumed): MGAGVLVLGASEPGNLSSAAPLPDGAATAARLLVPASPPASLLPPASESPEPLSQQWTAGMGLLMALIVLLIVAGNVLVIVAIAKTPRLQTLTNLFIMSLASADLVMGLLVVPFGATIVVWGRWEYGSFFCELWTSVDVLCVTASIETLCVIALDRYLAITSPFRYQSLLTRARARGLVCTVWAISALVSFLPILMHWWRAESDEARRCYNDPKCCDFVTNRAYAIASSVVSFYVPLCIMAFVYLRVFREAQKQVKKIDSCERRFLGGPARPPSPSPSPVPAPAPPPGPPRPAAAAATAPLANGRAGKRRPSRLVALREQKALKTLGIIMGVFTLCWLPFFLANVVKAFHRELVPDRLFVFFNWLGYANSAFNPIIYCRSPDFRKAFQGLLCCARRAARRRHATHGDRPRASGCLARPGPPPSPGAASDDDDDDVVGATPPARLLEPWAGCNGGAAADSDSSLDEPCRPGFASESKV
row,Structure (SMILES),Average pEC50 [Receptor subtype: B1-AR; Cell type: CHO-K1 (HitHunter)]
1,"CC(C)(C)NC[C@@H](O)c1cccc(C#N)n1 [Compound 03-48, (R)-6-(2-(tert-butylamino)-1-hydroxyethyl)picolinonitrile]",D (D < 6)
2,CC(C)c1ncccc1[C@@H](O)CNC(C)(C)C [Compound 03-51],D (D < 6)
3,CC(C)(C)NC[C@H](O)c1cccnc1N1CCCC1 [Compound 03-60],D (D < 6)
4,CC(C)(C)NC[C@@H](O)c1cccc(-n2cccc2)n1 [Compound 03-124],C (C = <7-6)
5,CC(C)(C)NC[C@H](O)c1cccc(-c2cccc(Cl)c2)n1 [Compound 03-129],B (B = 8-7)
6,CC(C)(C)NC[C@@H](O)c1cccc(-c2cccc(Cl)c2)n1 [Compound 03-130],C (C = <7-6)
7,CC(C)(C)NC[C@H](O)c1cccc(-c2cccc(F)c2)n1 [Compound 03-131],B (B = 8-7)
8,CC(C)(C)NC[C@H](O)c1cccc(-c2ccccc2Cl)n1 [Compound 03-133],C (C = <7-6)
9,CC(C)(C)NC[C@H](O)c1cccc(N2CC3CCCC3C2)n1 (some centres unmarked) [Compound 03-135],C (C = <7-6)
10,CC(C)(C)NC[C@H](O)c1cccc(-c2cccnc2)n1 [Compound 03-151],B (B = 8-7)
11,CC(C)(C)NC[C@@H](O)c1cccc(-c2cccnc2)n1 [Compound 03-152],D (D < 6)
12,CC(C)(C)NC[C@H](O)c1cccc(N2CCOCC2)n1 [Compound 03-157],A (A > 8)
13,CC(C)(C)NC[C@@H](O)c1cccc(N2CCOCC2)n1 [Compound 03-158],D (D < 6)
14,CC(C)(C)NC[C@@H](O)c1cccc(C(C)(F)F)n1 [Compound 03-170],D (D < 6)

# Same assay, conditions: B1-AR; CHO-K1 (HitHunter); read-out: Average pEC50 [Receptor subtype: B1-AR; Cell type: CHO-K1 (HitHunter)] (converted)
row,Structure (SMILES),EC50 [nM]
1,Cc1ccc([C@@H](O)CNC(C)(C)C)c(C2CCCC2)n1 [Compound 03-65],> 1000
2,CC(C)(C)NC[C@H](O)c1cccnc1C1CCC1 [Compound 03-68],100 to 1000
3,CC(C)(C)NC[C@H](O)c1cccnc1-n1nccn1 [Compound 03-74],> 1000
4,C#Cc1ncccc1[C@@H](O)CNC(C)(C)C [Compound 03-75],> 1000
5,CC(C)(C)NC[C@H](O)c1cccnc1-c1c[nH]nn1 [Compound 03-76],100 to 1000
6,CC(C)(C)NC[C@H](O)c1cccnc1C(C)(F)F [Compound 03-83],> 1000
7,CNC(=O)c1cccc([C@@H](O)CNC(C)(C)C)n1 [Compound 03-85],> 1000
8,CC(C)(C)NC[C@H](O)c1cccc(C2=NCCN2)n1 [Compound 03-86],> 1000
9,Cc1ccc([C@@H](O)CNC(C)(C)C)c(C2=CCCC2)n1 [Compound 03-90],> 1000

# Same assay, conditions: B1-AR; CHO-K cells; read-out: Average EC50 [Receptor subtype: B1-AR; Cell type: CHO-K]
row,Structure (SMILES),EC50 [nM]
1,"CC(C)(C)NC[C@@H](O)c1cccc(C#N)n1 [Compound 03-48, (R)-6-(2-(tert-butylamino)-1-hydroxyethyl)picolinonitrile]",> 1000
2,CC(C)c1ncccc1[C@@H](O)CNC(C)(C)C [Compound 03-51],> 1000
3,CC(C)(C)NC[C@H](O)c1cccnc1N1CCCC1 [Compound 03-60],> 1000
4,CC(C)(C)NC[C@@H](O)c1cccc(-n2cccc2)n1 [Compound 03-124],100 to 1000
5,CC(C)(C)NC[C@H](O)c1cccc(-c2cccc(Cl)c2)n1 [Compound 03-129],10 to 100
6,CC(C)(C)NC[C@@H](O)c1cccc(-c2cccc(Cl)c2)n1 [Compound 03-130],100 to 1000
7,CC(C)(C)NC[C@H](O)c1cccc(-c2cccc(F)c2)n1 [Compound 03-131],10 to 100
8,CC(C)(C)NC[C@H](O)c1cccc(-c2ccccc2Cl)n1 [Compound 03-133],100 to 1000
9,CC(C)(C)NC[C@H](O)c1cccc(N2CC3CCCC3C2)n1 (some centres unmarked) [Compound 03-135],100 to 1000
10,CC(C)(C)NC[C@H](O)c1cccc(-c2cccnc2)n1 [Compound 03-151],10 to 100
11,CC(C)(C)NC[C@@H](O)c1cccc(-c2cccnc2)n1 [Compound 03-152],> 1000
12,CC(C)(C)NC[C@H](O)c1cccc(N2CCOCC2)n1 [Compound 03-157],< 10
13,CC(C)(C)NC[C@@H](O)c1cccc(N2CCOCC2)n1 [Compound 03-158],> 1000
14,CC(C)(C)NC[C@@H](O)c1cccc(C(C)(F)F)n1 [Compound 03-170],> 1000

# Molecular target: β2 adrenergic receptor (Homo sapiens (Human), UniProt P07550)
# Sequence (P07550 whole entry, species assumed): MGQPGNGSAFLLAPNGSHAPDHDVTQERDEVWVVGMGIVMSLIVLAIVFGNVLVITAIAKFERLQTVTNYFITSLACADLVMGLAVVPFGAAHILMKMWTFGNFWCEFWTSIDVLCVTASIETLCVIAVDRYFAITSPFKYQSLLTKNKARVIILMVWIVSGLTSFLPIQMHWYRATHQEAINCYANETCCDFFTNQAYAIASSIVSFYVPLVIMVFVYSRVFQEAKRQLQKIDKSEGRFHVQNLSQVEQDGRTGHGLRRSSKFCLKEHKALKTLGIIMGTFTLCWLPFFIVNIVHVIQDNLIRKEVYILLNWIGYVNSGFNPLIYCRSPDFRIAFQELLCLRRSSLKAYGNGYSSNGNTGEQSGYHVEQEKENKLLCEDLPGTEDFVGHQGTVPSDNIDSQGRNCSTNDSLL
# Assay: cAMP Gs dynamic HTRF assay, β2 expressing CHO cells
# Type: cell-based
# Conditions: B2-AR; CHO-K1 (HitHunter)
# Procedure: as §1, §2, §3, §4
row,Structure (SMILES),Average pEC50 [Receptor subtype: B2-AR; Cell type: CHO-K1 (HitHunter)]
1,"CC(C)(C)NC[C@@H](O)c1cccc(C#N)n1 [Compound 03-48, (R)-6-(2-(tert-butylamino)-1-hydroxyethyl)picolinonitrile]",C-D

# Same assay, conditions: B2-AR; CHO-K1 (HitHunter); read-out: Average pEC50 [Receptor subtype: B2-AR; Cell type: CHO-K1 (HitHunter)] (converted)
row,Structure (SMILES),EC50 [nM]
1,CC(C)c1ncccc1[C@@H](O)CNC(C)(C)C [Compound 03-51],> 1000
2,CC(C)(C)NC[C@H](O)c1cccnc1N1CCCC1 [Compound 03-60],> 1000
3,Cc1ccc([C@@H](O)CNC(C)(C)C)c(C2CCCC2)n1 [Compound 03-65],10 to 100
4,CC(C)(C)NC[C@H](O)c1cccnc1C1CCC1 [Compound 03-68],10 to 100
5,CC(C)(C)NC[C@H](O)c1cccnc1-n1nccn1 [Compound 03-74],> 1000
6,C#Cc1ncccc1[C@@H](O)CNC(C)(C)C [Compound 03-75],> 1000
7,CC(C)(C)NC[C@H](O)c1cccnc1-c1c[nH]nn1 [Compound 03-76],100 to 1000
8,CC(C)(C)NC[C@H](O)c1cccnc1C(C)(F)F [Compound 03-83],100 to 1000
9,CNC(=O)c1cccc([C@@H](O)CNC(C)(C)C)n1 [Compound 03-85],100 to 1000
10,CC(C)(C)NC[C@H](O)c1cccc(C2=NCCN2)n1 [Compound 03-86],100 to 1000
11,Cc1ccc([C@@H](O)CNC(C)(C)C)c(C2=CCCC2)n1 [Compound 03-90],> 1000
12,CC(C)(C)NC[C@@H](O)c1cccc(-n2cccc2)n1 [Compound 03-124],10 to 100
13,CC(C)(C)NC[C@H](O)c1cccc(-c2cccc(Cl)c2)n1 [Compound 03-129],< 10
14,CC(C)(C)NC[C@@H](O)c1cccc(-c2cccc(Cl)c2)n1 [Compound 03-130],10 to 100
15,CC(C)(C)NC[C@H](O)c1cccc(-c2cccc(F)c2)n1 [Compound 03-131],< 10
16,CC(C)(C)NC[C@H](O)c1cccc(-c2ccccc2Cl)n1 [Compound 03-133],< 10
17,CC(C)(C)NC[C@H](O)c1cccc(N2CC3CCCC3C2)n1 (some centres unmarked) [Compound 03-135],< 10
18,CC(C)(C)NC[C@H](O)c1cccc(-c2cccnc2)n1 [Compound 03-151],< 10
19,CC(C)(C)NC[C@@H](O)c1cccc(-c2cccnc2)n1 [Compound 03-152],10 to 100
20,CC(C)(C)NC[C@H](O)c1cccc(N2CCOCC2)n1 [Compound 03-157],< 10
21,CC(C)(C)NC[C@@H](O)c1cccc(N2CCOCC2)n1 [Compound 03-158],10 to 100
22,CC(C)(C)NC[C@@H](O)c1cccc(C(C)(F)F)n1 [Compound 03-170],100 to 1000

# Same assay, conditions: B2-AR; CHO-K cells; read-out: Average EC50 [Receptor subtype: B2-AR; Cell type: CHO-K]
row,Structure (SMILES),EC50 [nM]
1,"CC(C)(C)NC[C@@H](O)c1cccc(C#N)n1 [Compound 03-48, (R)-6-(2-(tert-butylamino)-1-hydroxyethyl)picolinonitrile]",> 1000
2,CC(C)c1ncccc1[C@@H](O)CNC(C)(C)C [Compound 03-51],> 1000
3,CC(C)(C)NC[C@H](O)c1cccnc1N1CCCC1 [Compound 03-60],> 1000
4,CC(C)(C)NC[C@@H](O)c1cccc(-n2cccc2)n1 [Compound 03-124],10 to 100
5,CC(C)(C)NC[C@H](O)c1cccc(-c2cccc(Cl)c2)n1 [Compound 03-129],< 10
6,CC(C)(C)NC[C@@H](O)c1cccc(-c2cccc(Cl)c2)n1 [Compound 03-130],10 to 100
7,CC(C)(C)NC[C@H](O)c1cccc(-c2cccc(F)c2)n1 [Compound 03-131],< 10
8,CC(C)(C)NC[C@H](O)c1cccc(-c2ccccc2Cl)n1 [Compound 03-133],< 10
9,CC(C)(C)NC[C@H](O)c1cccc(N2CC3CCCC3C2)n1 (some centres unmarked) [Compound 03-135],< 10
10,CC(C)(C)NC[C@H](O)c1cccc(-c2cccnc2)n1 [Compound 03-151],< 10
11,CC(C)(C)NC[C@@H](O)c1cccc(-c2cccnc2)n1 [Compound 03-152],100 to 1000
12,CC(C)(C)NC[C@H](O)c1cccc(N2CCOCC2)n1 [Compound 03-157],< 10
13,CC(C)(C)NC[C@@H](O)c1cccc(N2CCOCC2)n1 [Compound 03-158],10 to 100
14,CC(C)(C)NC[C@@H](O)c1cccc(C(C)(F)F)n1 [Compound 03-170],100 to 1000
